Measured values from article PMC10581841, “Rapid Separation of Asiatic Acid, Quercetin, and Kaempferol from Traditional Chinese Medicine Centella asiatica (L.) Urban Using HSCCC-Semi-Prep-HPLC and the Assessment of Their Potential as Fatty Acid Synthase Inhibitors” (International Journal of Analytical Chemistry, 2023).
Where two headings read alike, the source gives them in different places.

Biological target: T1, fatty acid synthetase (FAS) (Anas platyrhynchos, UniProt A0A0D3LZ43)
T1 construct: native enzyme purified from fresh duck liver
T1 sequence (A0A0D3LZ43 1-2514): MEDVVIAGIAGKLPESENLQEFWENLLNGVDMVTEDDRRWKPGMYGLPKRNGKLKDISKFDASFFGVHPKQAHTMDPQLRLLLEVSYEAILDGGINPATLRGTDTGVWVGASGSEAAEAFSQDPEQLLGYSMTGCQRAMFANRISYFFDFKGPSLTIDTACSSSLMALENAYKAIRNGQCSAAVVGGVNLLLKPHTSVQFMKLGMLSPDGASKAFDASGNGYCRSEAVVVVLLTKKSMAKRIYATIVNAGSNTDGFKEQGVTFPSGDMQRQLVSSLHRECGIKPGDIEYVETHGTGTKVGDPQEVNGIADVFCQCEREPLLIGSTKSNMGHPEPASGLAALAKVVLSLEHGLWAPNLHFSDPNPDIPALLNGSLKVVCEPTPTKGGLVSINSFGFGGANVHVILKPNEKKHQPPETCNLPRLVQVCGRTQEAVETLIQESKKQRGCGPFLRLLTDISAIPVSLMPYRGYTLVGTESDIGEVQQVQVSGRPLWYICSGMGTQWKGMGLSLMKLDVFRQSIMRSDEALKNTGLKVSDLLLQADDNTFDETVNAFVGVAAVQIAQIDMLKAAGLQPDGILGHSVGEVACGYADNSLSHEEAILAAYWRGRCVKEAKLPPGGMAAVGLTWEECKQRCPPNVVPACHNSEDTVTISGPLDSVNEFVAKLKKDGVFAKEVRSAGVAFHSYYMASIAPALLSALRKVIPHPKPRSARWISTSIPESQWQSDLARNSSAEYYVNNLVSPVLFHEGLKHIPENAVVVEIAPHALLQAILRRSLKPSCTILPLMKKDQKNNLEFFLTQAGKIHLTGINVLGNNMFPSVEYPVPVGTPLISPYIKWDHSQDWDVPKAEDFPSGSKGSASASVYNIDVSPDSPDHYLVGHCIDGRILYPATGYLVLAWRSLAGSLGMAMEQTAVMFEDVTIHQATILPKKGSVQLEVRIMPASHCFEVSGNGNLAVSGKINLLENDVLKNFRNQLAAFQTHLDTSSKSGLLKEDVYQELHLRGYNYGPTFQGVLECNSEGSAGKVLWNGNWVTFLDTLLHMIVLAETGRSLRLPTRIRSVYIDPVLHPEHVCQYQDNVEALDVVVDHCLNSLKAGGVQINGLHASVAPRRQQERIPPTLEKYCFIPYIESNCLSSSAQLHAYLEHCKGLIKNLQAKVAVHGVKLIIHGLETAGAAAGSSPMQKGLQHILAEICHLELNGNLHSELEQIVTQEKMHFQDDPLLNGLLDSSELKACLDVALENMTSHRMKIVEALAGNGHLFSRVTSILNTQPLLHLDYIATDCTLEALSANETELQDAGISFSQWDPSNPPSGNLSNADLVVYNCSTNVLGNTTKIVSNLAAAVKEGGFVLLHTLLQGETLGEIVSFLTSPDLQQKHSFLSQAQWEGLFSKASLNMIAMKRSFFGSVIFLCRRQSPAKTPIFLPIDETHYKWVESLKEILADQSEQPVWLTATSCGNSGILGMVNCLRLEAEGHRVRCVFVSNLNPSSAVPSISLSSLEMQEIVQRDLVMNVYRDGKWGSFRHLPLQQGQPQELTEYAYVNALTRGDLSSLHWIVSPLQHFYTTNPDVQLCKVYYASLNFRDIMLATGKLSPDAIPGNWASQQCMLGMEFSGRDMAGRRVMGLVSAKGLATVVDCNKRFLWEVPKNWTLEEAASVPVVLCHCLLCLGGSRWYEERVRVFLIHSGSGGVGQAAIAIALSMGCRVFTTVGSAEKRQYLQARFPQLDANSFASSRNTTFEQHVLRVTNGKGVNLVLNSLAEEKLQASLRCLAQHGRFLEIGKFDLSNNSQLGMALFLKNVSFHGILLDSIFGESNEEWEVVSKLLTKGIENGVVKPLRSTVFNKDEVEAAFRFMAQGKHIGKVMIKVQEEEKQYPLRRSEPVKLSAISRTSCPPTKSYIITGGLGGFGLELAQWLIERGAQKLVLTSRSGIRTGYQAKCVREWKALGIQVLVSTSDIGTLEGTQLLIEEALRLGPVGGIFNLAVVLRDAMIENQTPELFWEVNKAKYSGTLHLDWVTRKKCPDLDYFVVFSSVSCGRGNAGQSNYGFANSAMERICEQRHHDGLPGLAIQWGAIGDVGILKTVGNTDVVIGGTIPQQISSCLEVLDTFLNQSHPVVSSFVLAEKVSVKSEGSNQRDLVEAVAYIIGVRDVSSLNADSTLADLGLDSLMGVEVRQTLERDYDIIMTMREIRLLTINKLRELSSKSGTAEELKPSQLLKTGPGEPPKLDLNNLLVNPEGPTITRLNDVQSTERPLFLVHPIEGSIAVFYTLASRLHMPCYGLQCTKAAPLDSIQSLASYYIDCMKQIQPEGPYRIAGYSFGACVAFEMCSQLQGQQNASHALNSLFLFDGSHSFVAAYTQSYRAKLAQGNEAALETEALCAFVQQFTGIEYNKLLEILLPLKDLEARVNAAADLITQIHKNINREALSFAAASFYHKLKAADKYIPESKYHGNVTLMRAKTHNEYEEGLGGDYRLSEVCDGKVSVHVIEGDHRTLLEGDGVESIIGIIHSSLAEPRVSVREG
Test: UV spectrophotometric FAS activity assay at […] nm (NADPH)
Format: biochemical

[1] = read-out: IC50 (μg/mL) (converted)

IC50 [1] [µM] | SMILES | IC50 [µM]
19.5 | C[C@H]1[C@H](C)CC[C@]2(C(=O)O)CC[C@]3(C)C(=CC[C@@H]4[C@@]5(C)C[C@@H](O)[C@H](O)[C@@](C)(CO)[C@@H]5CC[C@]43C)[C@H]12 [AA, asiatic acid] | 
129 | O=c1c(O)c(-c2ccc(O)cc2)oc2cc(O)cc(O)c12 [KPL, kaempferol] | 
 | C[C@H]1[C@H](C)CC[C@]2(C(=O)O)CC[C@]3(C)C(=CC[C@@H]4[C@@]5(C)C[C@@H](O)[C@H](O)[C@@](C)(CO)[C@@H]5[C@H](O)C[C@]43C)[C@H]12 [MA, madecassic acid] | 21.5
 | O=c1c(O)c(-c2ccc(O)c(O)c2)oc2cc(O)cc(O)c12 [QCN, quercetin] | 143
